Source: USRE48461E1, “Modulation of androgen receptor expression” (Ionis Pharmaceuticals, Inc., priority 2012, dated 2021)

Key:
Assay type in all cases: cell-based, human
[1] = test system: prostate-specific antigen (PSA) mRNA; assay: Time-course PSA expression in C4-2B cells
Experimental: (§1) C4-2B cells were plated at 1,000 cells per well in complete medium. […] ISIS 549148 was included as a negative control. […] After a treatment period of 8 hours, 24 hours, and 48 hours, AR expression was measured with primer probe set hAR-LTS00943. Results are presented in Tables 70-72 as percent expression of AR, relative to non-treated cells.
(§2) Expression analysis of prostate-specific antigen (PSA) and TMPRSS2 were also analyzed. Results are presented in Tables 73-75 as percent inhibition of PSA expression and Tables 76-78 as percent inhibition of TMPRSS2 expression, relative to non-treated cells.

TMPRSS2 mRNA [2] = assay: TMPRSS2 expression in C4-2B cells (Example 30); settings: 48 hrs
Experimental: (§3) Cells were plated at 1,000 cells per well. […] ISIS 549148 was included as a negative control. […] After an incubation period of 48 hrs, RNA levels of AR, PSA and TMPRSS2 were measured.
(§4) Cells were plated at 2,000 cells per well and cultured in CSS media with 1 nM DHT. […] ISIS 549148 was included as a negative control. […] After an incubation period of 48 hrs, RNA levels of AR, PSA and TMPRSS2 were measured. In the absence of DHT, AR expression in C4-2 cells was 188%, PSA expression was 43% and TMPRSS2 expression was 27% compared to the untreated control.

22RV1 cells [3] = assay: 22RV1 cell proliferation (Example 32); settings: 5 days; for Proliferation (% untreated control): 22RV1 cells, complete medium
Experimental: After a treatment period of 5 days in complete medium, the proliferative capacity of the cancer cells was measured with using CellTiter 96® AQueous One or CellTiter-Glo® Solution Cell Proliferation kit (Promega), following the manufacturer's instructions. […] Treatment with ISIS oligonucleotides in CSS+DHT medium reduced the proliferative capacity to a greater extent than treatment with MVD-3100. The proliferative capacity of cells cultured in CSS medium without DHT is 12% of untreated control levels.

22RV1 cells [4] = assay: 22RV1 apoptosis (Caspase-glo 3/7); settings: 72 hours; for Apoptosis (% untreated control): 22RV1 cells
Experimental: After a treatment period of 72 hours in complete medium or CSS+DHT medium, apoptosis of the cancer cells was measured with Caspase-glo 3/7 assay kit (Promega). Results are presented in Tables 131 and 132 as percent apoptosis of the cells, relative to non-treated cells.

PSA mRNA = assay: PSA expression in C4-2B cells (Example 30); settings: 48 hrs
Experimental: as §3, §4

TMPRSS2 mRNA [5] = assay: Time-course TMPRSS2 expression in C4-2B cells
Experimental: as §1, §2

VCaP cells = assay: VCaP cell proliferation; settings: 5 days; for Proliferation (% untreated control): VCaP cells
Experimental: After a treatment period of 5 days in complete medium or CSS+1 nM DHT medium, the proliferative capacity of the cancer cells was measured with using CellTiter 96® AQueous One or CellTiter-Glo® Solution Cell Proliferation kit (Promega), following the manufacturer's instructions. […] Treatment with ISIS oligonucleotides in CSS+DHT medium reduced the proliferative capacity to a greater extent than treatment with MVD-3100. The proliferative capacity of cells cultured in CSS medium without DHT is 12% of untreated control levels.

22RV1 cells [6] = assay: 22RV1 cell proliferation with/without DHT (MTT); settings: 5 days; for Percent inhibition of 22RV1 cell proliferation: RNAiMAX
Experimental: 22RV1cells were plated at 1,500 cells per well. […] Separate sets of cells, also treated with each of the antisense oligonucleotides, were treated with DHT added on day 1 at a final concentration of 1 nM. After a treatment period of 5 days, the proliferative ability of the cancer cells was measured using the standard MTT assay. Results are presented in Table 69 as percent inhibition of proliferation, relative to non-treated cells.

TGATTTAATGGTTGCA [ISIS 569236] (cEt/MOE gapmer chemistry, further chemistry not given here) [targets intron 1]
Percent inhibition of PSA expression compared to the control group in 8 hours ([1]; 0.04 μM): 18%
Percent inhibition of PSA expression compared to the control group in 24 hours ([1]; 0.04 μM): 10%
Percent inhibition of PSA expression compared to the control group in 48 hours ([1]; 0.04 μM): 4%
Percent inhibition of PSA expression compared to the control group in 8 hours ([1]; 0.2 μM): 3%
Percent inhibition of PSA expression compared to the control group in 24 hours ([1]; 0.2 μM): 34%
Percent inhibition of PSA expression compared to the control group in 48 hours ([1]; 0.2 μM): 45%
Percent inhibition of PSA expression compared to the control group in 8 hours ([1]; 1 μM): 0%
Percent inhibition of PSA expression compared to the control group in 24 hours ([1]; 1 μM): 44%
Percent inhibition of PSA expression compared to the control group in 48 hours ([1]; 1 μM): 68%
Percent inhibition of PSA expression compared to the control group in 8 hours ([1]; 5.0 μM): 0%
Percent inhibition of PSA expression compared to the control group in 24 hours ([1]; 5.0 μM): 54%
Percent inhibition of PSA expression compared to the control group in 48 hours ([1]; 5.0 μM): 76%
PSA expression ([1]; time course): reduced PSA and TMPRSS2 expression in the cells relative to the control set at the 24 hr and 48 hr time points
Percent inhibition of TMPRSS2 expression (TMPRSS2 mRNA [2]; CSS + DHT medium, 0.04 μM): 0%
Percent inhibition of TMPRSS2 expression (TMPRSS2 mRNA [2]; CSS + DHT medium, 0.2 μM): 6%
Percent inhibition of TMPRSS2 expression (TMPRSS2 mRNA [2]; CSS + DHT medium, 1 μM): 43%
Percent inhibition of TMPRSS2 expression (TMPRSS2 mRNA [2]; CSS + DHT medium, 5.0 μM): 59%
Percent inhibition of TMPRSS2 expression (TMPRSS2 mRNA [2]; complete medium, 0.04 μM): 33%
Percent inhibition of TMPRSS2 expression (TMPRSS2 mRNA [2]; complete medium, 0.2 μM): 59%
Percent inhibition of TMPRSS2 expression (TMPRSS2 mRNA [2]; complete medium, 1 μM): 69%
Percent inhibition of TMPRSS2 expression (TMPRSS2 mRNA [2]; complete medium, 5.0 μM): 73%
Proliferation (% untreated control) (22RV1 cells [3]; 1.34 nM): 92 % untreated control
Proliferation (% untreated control) (22RV1 cells [3]; 4.0 nM): 53 % untreated control
Proliferation (% untreated control) (22RV1 cells [3]; 13.4 nM): 20 % untreated control
Proliferation (% untreated control) (22RV1 cells [3]; 40 nM): 7 % untreated control
proliferation of 22RV1 cells (22RV1 cells [3]): reduced proliferation of the cells in a dose dependent compared to the control
Apoptosis (% untreated control) (22RV1 cells [4]; CSS + DHT medium, 1.34 nM): 127 % untreated control
Apoptosis (% untreated control) (22RV1 cells [4]; CSS + DHT medium, 4.0 nM): 106 % untreated control
Apoptosis (% untreated control) (22RV1 cells [4]; CSS + DHT medium, 13.4 nM): 257 % untreated control
Apoptosis (% untreated control) (22RV1 cells [4]; CSS + DHT medium, 40 nM): 1136 % untreated control
Apoptosis (% untreated control) (22RV1 cells [4]; complete medium, 1.34 nM): 91 % untreated control
Apoptosis (% untreated control) (22RV1 cells [4]; complete medium, 4.0 nM): 141 % untreated control
Apoptosis (% untreated control) (22RV1 cells [4]; complete medium, 13.4 nM): 333 % untreated control
Apoptosis (% untreated control) (22RV1 cells [4]; complete medium, 40 nM): 1452 % untreated control
apoptosis of 22RV1 cells (22RV1 cells [4]; complete or CSS+DHT medium): increased apoptosis of the cells in a dose dependent compared to the control
Percent inhibition of PSA expression (PSA mRNA; CSS + DHT medium, 0.04 μM): 0%
Percent inhibition of PSA expression (PSA mRNA; CSS + DHT medium, 0.2 μM): 5%
Percent inhibition of PSA expression (PSA mRNA; CSS + DHT medium, 1 μM): 33%
Percent inhibition of PSA expression (PSA mRNA; CSS + DHT medium, 5.0 μM): 46%
Percent inhibition of PSA expression (PSA mRNA; complete medium, 0.04 μM): 30%
Percent inhibition of PSA expression (PSA mRNA; complete medium, 0.2 μM): 72%
Percent inhibition of PSA expression (PSA mRNA; complete medium, 1 μM): 81%
Percent inhibition of PSA expression (PSA mRNA; complete medium, 5.0 μM): 89%
Percent inhibition of TMPRSS2 expression compared to the control group in 8 hours (TMPRSS2 mRNA [5]; 0.04 μM): 0%
Percent inhibition of TMPRSS2 expression compared to the control group in 24 hours (TMPRSS2 mRNA [5]; 0.04 μM): 10%
Percent inhibition of TMPRSS2 expression compared to the control group in 48 hours (TMPRSS2 mRNA [5]; 0.04 μM): 22%
Percent inhibition of TMPRSS2 expression compared to the control group in 8 hours (TMPRSS2 mRNA [5]; 0.2 μM): 0%
Percent inhibition of TMPRSS2 expression compared to the control group in 24 hours (TMPRSS2 mRNA [5]; 0.2 μM): 32%
Percent inhibition of TMPRSS2 expression compared to the control group in 48 hours (TMPRSS2 mRNA [5]; 0.2 μM): 57%
Percent inhibition of TMPRSS2 expression compared to the control group in 8 hours (TMPRSS2 mRNA [5]; 1 μM): 0%
Percent inhibition of TMPRSS2 expression compared to the control group in 24 hours (TMPRSS2 mRNA [5]; 1 μM): 57%
Percent inhibition of TMPRSS2 expression compared to the control group in 48 hours (TMPRSS2 mRNA [5]; 1 μM): 70%
Percent inhibition of TMPRSS2 expression compared to the control group in 8 hours (TMPRSS2 mRNA [5]; 5.0 μM): 0%
Percent inhibition of TMPRSS2 expression compared to the control group in 24 hours (TMPRSS2 mRNA [5]; 5.0 μM): 66%
Percent inhibition of TMPRSS2 expression compared to the control group in 48 hours (TMPRSS2 mRNA [5]; 5.0 μM): 75%
TMPRSS2 expression (TMPRSS2 mRNA [5]; time course): reduced PSA and TMPRSS2 expression in the cells relative to the control set at the 24 hr and 48 hr time points
Proliferation (% untreated control) (VCaP cells; CSS + DHT medium, 1.34 nM): 83 % untreated control
Proliferation (% untreated control) (VCaP cells; CSS + DHT medium, 4.0 nM): 68 % untreated control
Proliferation (% untreated control) (VCaP cells; CSS + DHT medium, 13.4 nM): 61 % untreated control
Proliferation (% untreated control) (VCaP cells; CSS + DHT medium, 40 nM): 45 % untreated control
Proliferation (% untreated control) (VCaP cells; complete medium, 1.34 nM): 98 % untreated control
Proliferation (% untreated control) (VCaP cells; complete medium, 4.0 nM): 76 % untreated control
Proliferation (% untreated control) (VCaP cells; complete medium, 13.4 nM): 68 % untreated control
Proliferation (% untreated control) (VCaP cells; complete medium, 40 nM): 59 % untreated control
proliferation of VCaP cells (VCaP cells; complete medium or CSS+1 nM DHT): reduced proliferation of the cells in a dose dependent compared to the control
Percent inhibition of 22RV1 cell proliferation (22RV1 cells [6]; +DHT (1 nM), ASO 1.34 nM): 0%
Percent inhibition of 22RV1 cell proliferation (22RV1 cells [6]; +DHT (1 nM), ASO 4.0 nM): 6%
Percent inhibition of 22RV1 cell proliferation (22RV1 cells [6]; +DHT (1 nM), ASO 13.4 nM): 32%
Percent inhibition of 22RV1 cell proliferation (22RV1 cells [6]; +DHT (1 nM), ASO 40.0 nM): 56%
22RV1 cell proliferation (22RV1 cells [6]; with or without 1 nM DHT): significantly inhibited prostate cancer cell proliferation even in the presence of AR activator, DHT, compared to the control
Percent inhibition of 22RV1 cell proliferation (22RV1 cells [6]; −DHT, ASO 1.34 nM): 0%
Percent inhibition of 22RV1 cell proliferation (22RV1 cells [6]; −DHT, ASO 4.0 nM): 18%
Percent inhibition of 22RV1 cell proliferation (22RV1 cells [6]; −DHT, ASO 13.4 nM): 47%
Percent inhibition of 22RV1 cell proliferation (22RV1 cells [6]; −DHT, ASO 40.0 nM): 64%
